Laboratory results taken from ChEMBL document CHEMBL1165899, “Synthesis and antitumor evaluation of novel cyclic arylsulfonylureas: ADME-T and pharmacophore prediction” (2010).

Experiments:
Format in all cases: functional
SK-MEL-2 = assay: Growth inhibition of human SK-MEL-2 cells at 10 uM after 48 hrs by sulforhodamine B assay relative to control; conditions: SK-MEL-2, 48 h, read-out: GI
M14 = assay: Growth inhibition of human M14 cells at 10 uM after 48 hrs by sulforhodamine B assay relative to control; conditions: M14, 48 h, read-out: GI
OVCAR-8 = assay: Growth inhibition of human OVCAR8 cells at 10 uM after 48 hrs by sulforhodamine B assay relative to control; conditions: OVCAR-8, 48 h, read-out: GI
IGROV-1 = assay: Growth inhibition of human IGROV1 cells at 10 uM after 48 hrs by sulforhodamine B assay relative to control; conditions: IGROV-1, 48 h, read-out: GI
RXF 393 = assay: Growth inhibition of human RXF393 cells at 10 uM after 48 hrs by sulforhodamine B assay relative to control; conditions: RXF 393, 48 h, read-out: GI

Compound | inhibition of growth at 10 µM (SK-MEL-2) | inhibition of growth at 10 µM (M14) | inhibition of growth at 10 µM (OVCAR-8) | inhibition of growth at 10 µM (IGROV-1) | inhibition of growth at 10 µM (RXF 393)
O=c1c2ccccc2n(S(=O)(=O)c2ccccc2)c(=O)n1-c1ccccc1 | 70.4% | 1.02% | 33.2% | 86.8% | 
COc1ccc(-n2c(=O)c3ccccc3n(S(=O)(=O)c3ccccc3)c2=O)cc1 | -43.2% | 56.5% | 26% | 63.2% | 43%
Cc1ccc(S(=O)(=O)N2C(=O)CC(=O)N(c3ccc(Cl)cc3)C2=O)cc1 | 73.9% | -7.35% | 54.1% | 65.6% | 
COc1ccc(/C=C2\NC(=O)N(S(=O)(=O)c3ccc(Cl)cc3)C2=O)cc1 | 8.98% |  | -1.23% | -1.97% | 84.1%
O=C1N/C(=C\c2ccc(Cl)cc2)C(=O)N1S(=O)(=O)c1ccccc1 | 19.9% |  | 6.79% | 1.13% | 7.42%
COc1ccc(/C=C2\NC(=O)N(S(=O)(=O)c3ccccc3)C2=O)cc1 | 11.6% |  | 5.23% | 115% | 96.5%
O=C1CC(=O)N(S(=O)(=O)c2ccc(Cl)cc2)C(=O)N1c1ccccc1 | 65.1% | 8.19% | 58.9% | 34.1% | 
COc1ccc(N2C(=O)CC(=O)N(S(=O)(=O)c3ccc(Cl)cc3)C2=O)cc1 | 61.1% | -3.04% | 42.4% | 76.5% | 
O=C1N/C(=C\c2ccc(Cl)cc2)C(=O)N1S(=O)(=O)c1ccc(Cl)cc1 | 17.6% | -20.1% | 4.01% | 81% | 76.2%
O=C1N/C(=C\c2ccccc2)C(=O)N1S(=O)(=O)c1ccc(Cl)cc1 | 11.7% |  | 3.88% | -9.05% | 0.92%
CN(C)c1ccc(/C=C2\NC(=O)N(S(=O)(=O)c3ccccc3)C2=O)cc1 | 3.98% | -2.88% | 1.17% | 107% | 80.3%
O=c1c2ccccc2n(S(=O)(=O)c2ccc(Cl)cc2)c(=O)n1-c1ccccc1 | 79.3% | 17.4% | 40.9% | 91.4% | 
